From ChEMBL document CHEMBL6115030, “Systematic All-Hydrocarbon Stapling Analysis for Cecropin A Generates a Potent and Stable Antimicrobial Peptide” (J Med Chem, 2025)
≈ marks a conversion by molar mass, not a printed value. Bridge positions count the residues as written; N and C are the ends. Square brackets hold non-standard residues; d marks the D form. Peptide text beside a SMILES is read from it. S5 = C=CCCC[C@](C)(N)C(=O)O

Tests used:
Type in all cases: functional
[1] = tested on: Staphylococcus aureus; test: Antibacterial activity against Staphylococcus aureus ATCC 25923 assessed as inhibition of bacterial growth measured after 24 hrs by broth microdilution method
[2] = tested on: Klebsiella pneumoniae; test: Antibacterial activity against Klebsiella pneumoniae ATCC 13883 assessed as inhibition of bacterial growth measured after 24 hrs by broth microdilution method
[3] = tested on: Pseudomonas aeruginosa; test: Antibacterial activity against Pseudomonas aeruginosa PAO1 assessed as inhibition of bacterial growth measured after 24 hrs by broth microdilution method

MIC [1] [µM] | MIC [2] [µM] | MIC [3] [µM] | SMILES
> 100 | > 100 | > 100 | CC[C@H](C)[C@H](NC(=O)CNC(=O)[C@H](CC(=O)O)NC(=O)[C@H](CCCNC(=N)N)NC(=O)[C@@H](NC(=O)[C@]1(C)CCC/C=C\CCC[C@](C)(NC(=O)[C@H](CCC(=O)O)NC(=O)[C@@H](NC(=O)[C@H](CCCCN)NC(=O)[C@H](CCCCN)NC(=O)[C@H](Cc2ccccc2)NC(=O)[C@H](CC(C)C)NC(=O)[C@H](CCCCN)NC(=O)[C@H](Cc2c[nH]c3ccccc23)NC(=O)[C@H](CCCCN)NC(C)=O)[C@@H](C)CC)C(=O)N[C@@H](C(C)C)C(=O)NCC(=O)N[C@@H](CCC(N)=O)C(=O)N1)[C@@H](C)CC)C(=O)N[C@H](C(=O)N[C@@H](CCCCN)C(=O)N[C@@H](C)C(=O)NCC(=O)N1CCC[C@H]1C(=O)N[C@@H](C)C(=O)N[C@H](C(=O)N[C@@H](C)C(=O)N[C@H](C(=O)N[C@H](C(=O)NCC(=O)N[C@@H](CCC(N)=O)C(=O)N[C@@H](C)C(=O)N[C@H](C(=O)N[C@@H](CCC(N)=O)C(=O)N[C@H](C(=O)N[C@@H](C)C(=O)N[C@@H](CCCCN)C(N)=O)[C@@H](C)CC)[C@@H](C)O)C(C)C)C(C)C)C(C)C)[C@@H](C)CC (Ac-KWKLFKKIE[S5]VGQ[S5]IRDGIIKAGPAVAVVGQATQIAK-NH2; staple (Z) 10-14)
> 100 | 12.5 (≈ 50.3 µg/mL) | > 100 | CC[C@H](C)[C@H](NC(=O)CNC(=O)[C@H](CC(=O)O)NC(=O)[C@H](CCCNC(=N)N)NC(=O)[C@@H](NC(=O)[C@H](CC(N)=O)NC(=O)[C@H](CCC(N)=O)NC(=O)CNC(=O)[C@@H](NC(=O)[C@H](CCCCN)NC(=O)[C@H](CCC(=O)O)NC(=O)[C@@H](NC(=O)[C@H](CCCCN)NC(=O)[C@H](CCCCN)NC(=O)[C@]1(C)CCC/C=C\CCC[C@](C)(NC(C)=O)C(=O)N[C@@H](Cc2c[nH]c3ccccc23)C(=O)N[C@@H](CCCCN)C(=O)N[C@@H](CC(C)C)C(=O)N1)[C@@H](C)CC)C(C)C)[C@@H](C)CC)C(=O)N[C@H](C(=O)N[C@@H](CCCCN)C(=O)N[C@@H](C)C(=O)NCC(=O)N1CCC[C@H]1C(=O)N[C@@H](C)C(=O)N[C@H](C(=O)N[C@@H](C)C(=O)N[C@H](C(=O)N[C@H](C(=O)NCC(=O)N[C@@H](CCC(N)=O)C(=O)N[C@@H](C)C(=O)N[C@H](C(=O)N[C@@H](CCC(N)=O)C(=O)N[C@H](C(=O)N[C@@H](C)C(=O)N[C@@H](CCCCN)C(N)=O)[C@@H](C)CC)[C@@H](C)O)C(C)C)C(C)C)C(C)C)[C@@H](C)CC (Ac-[S5]WKL[S5]KKIEKVGQNIRDGIIKAGPAVAVVGQATQIAK-NH2; staple (Z) 1-5)
> 100 | > 100 | > 100 | CC[C@H](C)[C@H](NC(=O)CNC(=O)[C@H](CC(=O)O)NC(=O)[C@H](CCCNC(=N)N)NC(=O)[C@@H](NC(=O)[C@H](CC(N)=O)NC(=O)[C@H](CCC(N)=O)NC(=O)CNC(=O)[C@@H](NC(=O)[C@H](CCCCN)NC(=O)[C@H](CCC(=O)O)NC(=O)[C@@H](NC(=O)[C@H](CCCCN)NC(=O)[C@]1(C)CCC/C=C\CCC[C@](C)(NC(=O)[C@H](CCCCN)NC(C)=O)C(=O)N[C@@H](CCCCN)C(=O)N[C@@H](CC(C)C)C(=O)N[C@@H](Cc2ccccc2)C(=O)N1)[C@@H](C)CC)C(C)C)[C@@H](C)CC)C(=O)N[C@H](C(=O)N[C@@H](CCCCN)C(=O)N[C@@H](C)C(=O)NCC(=O)N1CCC[C@H]1C(=O)N[C@@H](C)C(=O)N[C@H](C(=O)N[C@@H](C)C(=O)N[C@H](C(=O)N[C@H](C(=O)NCC(=O)N[C@@H](CCC(N)=O)C(=O)N[C@@H](C)C(=O)N[C@H](C(=O)N[C@@H](CCC(N)=O)C(=O)N[C@H](C(=O)N[C@@H](C)C(=O)N[C@@H](CCCCN)C(N)=O)[C@@H](C)CC)[C@@H](C)O)C(C)C)C(C)C)C(C)C)[C@@H](C)CC (Ac-K[S5]KLF[S5]KIEKVGQNIRDGIIKAGPAVAVVGQATQIAK-NH2; staple (Z) 2-6)
1.56 (≈ 6.27 µg/mL) | 6.25 (≈ 25.1 µg/mL) | > 100 | CC[C@H](C)[C@H](NC(=O)CNC(=O)[C@H](CC(=O)O)NC(=O)[C@H](CCCNC(=N)N)NC(=O)[C@@H](NC(=O)[C@H](CC(N)=O)NC(=O)[C@H](CCC(N)=O)NC(=O)CNC(=O)[C@@H](NC(=O)[C@H](CCCCN)NC(=O)[C@]1(C)CCC/C=C\CCC[C@](C)(NC(=O)[C@H](CC(C)C)NC(=O)[C@H](CCCCN)NC(=O)[C@H](Cc2c[nH]c3ccccc23)NC(=O)[C@H](CCCCN)NC(C)=O)C(=O)N[C@@H](CCCCN)C(=O)N[C@@H](CCCCN)C(=O)N[C@@H]([C@@H](C)CC)C(=O)N1)C(C)C)[C@@H](C)CC)C(=O)N[C@H](C(=O)N[C@@H](CCCCN)C(=O)N[C@@H](C)C(=O)NCC(=O)N1CCC[C@H]1C(=O)N[C@@H](C)C(=O)N[C@H](C(=O)N[C@@H](C)C(=O)N[C@H](C(=O)N[C@H](C(=O)NCC(=O)N[C@@H](CCC(N)=O)C(=O)N[C@@H](C)C(=O)N[C@H](C(=O)N[C@@H](CCC(N)=O)C(=O)N[C@H](C(=O)N[C@@H](C)C(=O)N[C@@H](CCCCN)C(N)=O)[C@@H](C)CC)[C@@H](C)O)C(C)C)C(C)C)C(C)C)[C@@H](C)CC (Ac-KWKL[S5]KKI[S5]KVGQNIRDGIIKAGPAVAVVGQATQIAK-NH2; staple (Z) 5-9)
3.13 (≈ 13 µg/mL) | 3.13 (≈ 13 µg/mL) | 3.13 (≈ 13 µg/mL) | CC[C@H](C)[C@H](NC(=O)[C@H](CCC(N)=O)NC(=O)[C@@H](NC(=O)[C@H](C)NC(=O)[C@H](CCC(N)=O)NC(=O)CNC(=O)[C@@H](NC(=O)[C@@H](NC(=O)[C@H](C)NC(=O)[C@@H](NC(=O)[C@H](C)NC(=O)[C@@H]1CCCN1C(=O)CNC(=O)[C@]1(C)CCC/C=C\CCC[C@](C)(NC(=O)[C@H](CC(=O)O)NC(=O)[C@H](CCCNC(=N)N)NC(=O)[C@@H](NC(=O)[C@H](CC(N)=O)NC(=O)[C@H](CCC(N)=O)NC(=O)CNC(=O)[C@@H](NC(=O)[C@H](CCCCN)NC(=O)[C@H](CCC(=O)O)NC(=O)[C@@H](NC(=O)[C@H](CCCCN)NC(=O)[C@H](CCCCN)NC(=O)[C@H](Cc2ccccc2)NC(=O)[C@H](CC(C)C)NC(=O)[C@H](CCCCN)NC(=O)[C@H](Cc2c[nH]c3ccccc23)NC(=O)[C@H](CCCCN)NC(C)=O)[C@@H](C)CC)C(C)C)[C@@H](C)CC)C(=O)N[C@@H]([C@@H](C)CC)C(=O)N[C@@H]([C@@H](C)CC)C(=O)N[C@@H](CCCCN)C(=O)N1)C(C)C)C(C)C)C(C)C)[C@@H](C)O)C(=O)N[C@@H](C)C(=O)N[C@@H](CCCCN)C(N)=O (Ac-KWKLFKKIEKVGQNIRD[S5]IIK[S5]GPAVAVVGQATQIAK-NH2; staple (Z) 18-22)
> 100 | > 100 | > 100 | CC[C@H](C)[C@H](NC(=O)CNC(=O)[C@H](CC(=O)O)NC(=O)[C@H](CCCNC(=N)N)NC(=O)[C@@H](NC(=O)[C@H](CC(N)=O)NC(=O)[C@H](CCC(N)=O)NC(=O)CNC(=O)[C@@H](NC(=O)[C@H](CCCCN)NC(=O)[C@H](CCC(=O)O)NC(=O)[C@@H](NC(=O)[C@]1(C)CCC/C=C\CCC[C@](C)(NC(=O)[C@H](Cc2c[nH]c3ccccc23)NC(=O)[C@H](CCCCN)NC(C)=O)C(=O)N[C@@H](CC(C)C)C(=O)N[C@@H](Cc2ccccc2)C(=O)N[C@@H](CCCCN)C(=O)N1)[C@@H](C)CC)C(C)C)[C@@H](C)CC)C(=O)N[C@H](C(=O)N[C@@H](CCCCN)C(=O)N[C@@H](C)C(=O)NCC(=O)N1CCC[C@H]1C(=O)N[C@@H](C)C(=O)N[C@H](C(=O)N[C@@H](C)C(=O)N[C@H](C(=O)N[C@H](C(=O)NCC(=O)N[C@@H](CCC(N)=O)C(=O)N[C@@H](C)C(=O)N[C@H](C(=O)N[C@@H](CCC(N)=O)C(=O)N[C@H](C(=O)N[C@@H](C)C(=O)N[C@@H](CCCCN)C(N)=O)[C@@H](C)CC)[C@@H](C)O)C(C)C)C(C)C)C(C)C)[C@@H](C)CC (Ac-KW[S5]LFK[S5]IEKVGQNIRDGIIKAGPAVAVVGQATQIAK-NH2; staple (Z) 3-7)
